The subject of data set [1] is feruloyl-CoA:monolignol transferase from Angelica sinensis. Nature of the data set: FMT enzymatic assay with purified recombinant Angelica sinensis FMT (UPLC detection of product). To be noted: for product formed from acyl-CoA donor substrate: coniferyl alcohol as acceptor, FIGS. 2, 6, 7; for enzyme activity with monolignol as acyl acceptor substrate: feruloyl-CoA as acyl donor, FIGS. 2, 4, 5. Type of data set: biochemical. As to the method: The feruloyl-CoA, p-coumaroyl-CoA, and caffeoyl-CoA substrates used in the FMT assay were enzymatically synthesized using the tobacco 4-coumarate-CoA-ligase (4CL) with a c-terminal HIS tag in pCRT7/CT TOPO, provided by Eran Pichersky. Following a method modified from Beuerle and Pichersky (Anal. Biochem. 302(2): 305-12 (2001)) 3.3 mg of ferulic acid, coumaric acid or caffeic acid, 2 mg coenzyme A, and 6.9 mg ATP were added to 50 mM Tris-hydrochloride pH 8 and 2.5 mM magnesium chloride in a final volume of 10 ml. The reaction was started by adding 0.25 mg 4CL, protein purified as described by the method of Beurerle and Pichershy. After a five-hour incubation at room temperature, additional 6.9 mg ATP, 2 mg coenzyme A, and 0.25 mg purified 4CL were added and the reaction was incubated overnight. The CoA esters were purified on an SPE cartridge as described in Beuerle and Pichersky (2001).
(§1) The FMT activity assay contained 100 mM MOPS pH 6.8, 1 mM dithiothreitol (DTT), 1 mM feruloyl-CoA, 1 mM coniferyl alcohol, 3.9 μg of purified FMT protein and deionized water to a volume of 50 μL. After a 30-minute incubation, 1 μL of 10 M hydrochloric acid was added to stop the reaction. Because the product synthesized in the reaction, coniferyl ferulate (CAFA), is insoluble, 50 μL of methanol was added to solubilize the CAFA. Prior to UPLC, protein and insoluble material were removed by filtering through an Amicon Ultracel 10K membrane filter (Millipore). The flow-through was analyzed using an Acquity Ultra Performance LC with an Acquity UPLC BEH C18 1.7 μm 2.1×100 mm column and the Acquity Console and Empower 2 Software, all from Waters Corporation. The solvents used in this method were solvent A, 0.1% trifluoroacetic acid, and solvent B, 100% acetonitrile. Samples were analyzed using the following gradient conditions, 13% B, for 5 minutes, 1 minute linear gradient to 42% B, held for 4 minutes, 1 minute linear gradient to 100% B, held for 1 minutes and 3 minutes at 13% B with a flow rate of 0.3 ml/minute. This method was then used to analyze a 10 μL injection of each assay reaction; standards for each of the substrates along with chemically synthesized CAFA were used to determine retention times for each compound.
Purified recombinant enzyme was assayed for FMT activity using a reaction mixture containing 2 mM coniferyl alcohol, […], 100 mM HEPES pH 7.4 and 1 mM DTT. The second most abundant BAHD acyltransferase gene when incubated with Coniferyl alcohol and feruloyl-CoA produced a compound with the retention time of authentic coniferyl ferulate (CAFA) (FIG. 2). […] The addition of methanol to 50% after stopping the enzyme with acid was required to analyze the product by UPLC. The insolubility of the product made partial purification easy as the product was separated from the substrates by centrifugation.

Data set [2] in a line: Solubility of the assay product coniferyl ferulate in the aqueous reaction mixture. Type of data set: physicochemical. As to conditions: before addition of methanol to 50%. As to the method: as §1, with “compound. […]” for “compound.”
Data set [3] deals with Angelica sinensis feruloyl-CoA:monolignol transferase. The data set can be described thus: FMT enzyme assay of transgenic Arabidopsis stems. To be noted: none with empty vector, FIG. 11B. Type of data set: biochemical. The text has this:
Arabidopsis were transformed by standard procedures with the Angelica sinensis feruloyl-CoA:monolignol transferase nucleic acids described herein. […] FMT expression was detected by Reverse Transcriptase PCR of […] isolated from the transgenic Arabidopsis leaves. Enzymatic activity by the expressed FMT was detected using the assay described in Example 1.

The next data set relates to Angelica sinensis FMT. The data set can be described thus: FMT enzyme assay of transgenic poplar leaf extracts. Type of data set: biochemical. As to conditions: extracts from transgenic hybrid poplar expressing YFP-FMT; none in wild type or no enzyme control; FIG. 10B. From the text: Hybrid poplar (Populus alba×grandidentata) was transformed using Agrobacterium tumefaciens EHA105 employing a common leaf disk inoculation. Two constructs were created to drive the expression of FMT in poplar: 1) 35S::YFP-FMT (cauliflower mosaic virus ubiquitous 35S promoter with an N-terminal tagged Yellow Fluorescent Protein), and 2) CesA8::YFP-FMT (poplar xylem-specific secondary cell wall specific cellulose synthase 8 promoter with an N-terminal tagged Yellow Fluorescent Protein). The binary plasmids were inserted into EHA105 using the freeze-thaw technique, and incubated overnight in liquid Woody Plant Media (WPM) supplemented with 100 μM acetosyringone. Leaf disks were cut and co-cultured with EHA105 for one hour at room temperature, blotted dry and plated abaxailly onto WPM supplemented with 0.1 μM each α-naphthalene acetic acid (NAA), 6-benzylaminopurine (BA), and thiadiazuron (TDZ) and solidified with 3% (w/v) agar and 1.1% (w/v) phytagel (WPM 0.1/0.1/0.1). […]
Purification of YFP-FMT was via GFPtrap_A (Chromotek) following the manufactures guidelines. […] These samples were analyzed by western blot and the UPLC method described in the Examples above. Formation of coniferyl ferulate was also detected by comparison of the UPLC traces of leaf extracts with authentic coniferyl ferulate.

A further data set deals with Hibiscus cannabinus FMT. The data set can be described thus: FMT enzymatic assay with purified Kenaf FMT (UPLC detection of coniferyl ferulate). The data set is classed as biochemical. As to conditions: Ni2+ column fractions 29 and 30; 1 mM feruloyl CoA, 1 mM coniferyl alcohol, pH 6, 45 min; FIG. 12B. As to the method:
The feruloyl CoA, p-coumaroyl CoA, and caffeoyl CoA substrates used in the FMT assay were enzymatically synthesized using the tobacco 4-coumarate CoA-ligase (4CL) with a c-terminal HIS tag in pCRT7/CT TOPO. Following a method modified from Beuerle and Pichersky (2001) 3.3 mg of ferulic acid, coumaric acid or caffeic acid, 2 mg coenzyme A, and 6.9 mg ATP were 50 mM Tris-hydrochloride pH 8, 2.5 mM magnesium chloride in a final volume of 10 ml. The reaction was started by adding 0.25 mg 4CL protein, purified as described by the method of Beurerle and Pichershy. After a five-hour incubation at room temperature, an additional 6.9 mg ATP, 2 mg coenzyme A, and 0.25 mg purified 4CL were added and the reaction was incubated overnight. […]
The FMT activity assay contained 100 mM sodium phosphate buffer pH 6, 1 mM dithiothreitol (DTT), 1 mM feruloyl CoA, 1 mM coniferyl alcohol, 0.5 μg of purified Kenaf FMT protein and deionized water to a volume of 50 μLL. […] The flow-through was analyzed using an Acquity Ultra Performance LC with an Acquity UPLC BEH C18 1.7 μm 2.1×100 mm column and the Acquity Console and Empower 2 Software, all from Waters Corporation. […] Samples were analyzed using the following gradient conditions, 13% B, for 5 minutes, 1 minute linear gradient to 42% B, held for 4 minutes, 1 minute linear gradient to 100% B, held for 1 minute and 3 minutes at 13% B with a flow rate of 0.3 ml/minute. […]

Entries after “also recorded” stand apart in the source; their conditions may differ.

With `CC(C)(COP(=O)(O)OP(=O)(O)OC[C@H]1O[C@@H](n2cnc3c(N)ncnc32)[C@H](O)[C@@H]1OP(=O)(O)O)[C@@H](O)C(=O)NCCC(=O)NCCSC(=O)/C=C/c1ccc(O)c(O)c1` [caffeoyl-CoA], the “product formed from acyl-CoA donor substrate” value (from here on “product formed”) in data set [1] was “very little product”. On to `COc1cc(/C=C/CO)ccc1O` [coniferyl alcohol], for which, in data set [1], the “enzyme activity with monolignol as acyl acceptor substrate” value (shortened to “enzyme activity with monolignol”) was “active”. In the case of `COc1cc(/C=C/COC(=O)/C=C/c2ccc(O)c(OC)c2)ccc1O` [coniferyl ferulate], in data set [2], the “solubility of product in water / assay mixture” value was “mostly insoluble in water; also recorded: partially insoluble”.

As for `COc1cc(/C=C/C(=O)SCCNC(=O)CCNC(=O)[C@H](O)C(C)(C)COP(=O)(O)OP(=O)(O)OC[C@H]2O[C@@H](n3cnc4c(N)ncnc43)[C@H](O)[C@@H]2OP(=O)(O)O)ccc1O` [feruloyl-CoA], the “product formed” value in data set [1] is reported as “substantial product”. `CC(C)(COP(=O)(O)OP(=O)(O)OC[C@H]1O[C@@H](n2cnc3c(N)ncnc32)[C@H](O)[C@@H]1OP(=O)(O)O)[C@@H](O)C(=O)NCCC(=O)NCCSC(=O)/C=C/c1ccc(O)cc1` [p-coumaroyl-CoA]: the “product formed” value in data set [1] is given as “very little product”.

As to `OC/C=C/c1ccc(O)cc1` [p-coumaryl alcohol], the “enzyme activity with monolignol” value in data set [1] is given as “active”. On to `COc1cc(/C=C/CO)cc(OC)c1O` [sinapyl alcohol], for which the “enzyme activity with monolignol” value in data set [1] is given as “active”.

B1: Angelica sinensis FMT: Angelica sinensis clone Dq155 pdest17 feruloyl-CoA:monolignol transferase enzyme, SEQ ID NO:2 (protein)
chain: MTIMEVQVVSKKMVKPSVPTPDHHKTCKLTAFDQIAPPDQVPIIYFYNSSNIHNIREQLVKSLSETLTKFYPLAGRFVQDGFYVDCNDEGVLYVEAEVNIPLNEFIGQAKKNIQLINDLVPKKNFKDIHSYENPIVGLQMSYFKCGGLAICMYLSHVVADGYTAAAFTKEWSNTTNGIINGDQLVSSSPINFELATLVPARDLSTVIKPAVMPPSKIKETKVVTRRFLFDENAISAFKDHVIKSESVNRPTRVEVVTSVLWKALINQSKLPSSTLYFHLNFRGKTGINTPPLDNHFSLCGNFYTQVPTRFRGGNQTKQDLELHELVKLLRGKLRNTLKNCSEINTADGLFLEAASNFNIIQEDLEDEQVDVRIFTTLCRMPLYETEFGWGKPEWVTIPEMHLEIVFLLDTKCGTGIEALVSMDEADMLQFELDPTISAFAS
Consider B1, for which the “FMT activity in ground stems (coniferyl ferulate detected)” value in data set [3] is listed as “enzymatically active”. Besides, the “FMT activity in leaf extracts (product peak at retention time of authentic coniferyl ferulate)” value with Angelica sinensis FMT was “FMT activity was identified”.

B2: Hibiscus cannabinus FMT: Hibiscus cannabinus (Kenaf) feruloyl-CoA:monolignol transferase enzyme, SEQ ID NO:9, expressed with N-terminal 6xHis tag in E. coli (protein)
chain: MATHSTIMFSVDRNDVVFVKPFKPTPSQVLSLSTIDNDPNLEIMCHTVFVYQANADFDVKPKDPASIIQEALSKLLVYYYPLAGKMKRETDGKLRIACTADDSVPFLVATADCKLSSLNHLDGIDVHTGKEFALDFASESDGGYYHPLVMQVTKFICGGFTIALSLSHSVCDGFGAAQIFQALTELASGRNEPSVKPVWERQLLVAKPAEEIPRSIVDKDLSAASPYLPTTDIVHACFYVTEESIKTLKMNLIKESKDESITSLEVLSAYIWRARFRALKLSPDKTTMLGMAVGIRRTVKPRLPEGYYGNAFTSANTAMTGKELDQGPLSKAVKQIKESKKLASENDYIWNLMSINEKLRELNSKFEAAAGSTMVITDWRRLGLLEDVDFGWKGSVNMIPLPWNMFGYVDLVLLLPPCKLDQSMKGGARVLVSFPTAAIAKFKEEMDALKHDNKVAGDALVI
modifications: N-terminal 6xHis tag
For B2, the “FMT activity: production of coniferyl ferulate from coniferyl alcohol and feruloyl-CoA” value in the data set with Hibiscus cannabinus FMT was “production of coniferyl ferulate (3) is visible”.

For the origin of these results see patent publication US10059955B2, “Hibiscus cannabinus feruloyl-CoA:monolignol transferase” (Wisconsin Alumni Research Foundation (WARF), priority 2011, dated 2018).
